{
  "source": "patent US20120301551A1",
  "about": "“COMPOUNDS AND COMPOSITIONS FOR TREATING NEURONAL DEATH OR NEUROLOGICAL DYSFUNCTION” (Neurotech Pharmaceuticals Co., Ltd., priority 2005, published 2012)",
  "key": {"[1]": {"assay": "single-dose toxicity test", "settings": "mouse, in vivo", "method": "Single-dose toxicity test of compounds showing good results in the above three efficacy tests were evaluated."}, "beta-amyloid (Aβ42)": {"tested_on": "beta-amyloid (Aβ42)", "assay": "suppression of beta-amyloid (Aβ42) production in CHO cells (ELISA)", "assay_type": "cell-based, Chinese hamster", "settings": "Cricetulus griseus; CHO cells stably transfected with human wild APP695 and PS1ΔExon9; culture medium, ELISA; read-out: Aβ42 lowering effect (IC50)", "method": "The suppressing effects of many drug candidates on production of beta-amyloid were evaluated in CHO cell line having the increased level of beta-amyloid. Results were shown as IC50 (uM) (Item C of Table 3 below).\nIn the Table 3, A, B and C mean neuron protecting effect against Fe^+2, suppressing effect on production of NO and suppressing effect on production of beta-amyloid, respectively. The term “ND” means “Not determined.”\nCells were treated with increasing concentrations of various chemicals in Chinese hamster ovary (CHO) cells stably transfected with human wild APP695 and the PS1ΔExon9, and analyzed Aβ42 levels in culture medium by colorimetric sandwich ELISA kit (BIOSOURCE, Camarillo, Calif.). In CHO cells, IC50 of Chemical—01-08 on Aβ42 lowering effect was 20-100 uM (Table 4)."}, "[2]": {"tested_on": "neuron-rich cortical cell cultures", "assay": "serum deprivation-induced neuronal cell apoptosis", "assay_type": "cell-based, mouse", "settings": "24 hr; 5 mM Li^+, 100 μM zVADfmk, 1 μM 2-hydroxy TTBA", "method": "(§1) (B) Neuron-rich cortical cell cultures (DIV 7) were deprived of serum, alone or with addition of 100 μM zVADfmk, 1 μM 2-hydroxy TTBA, or 5 mM Li^+. Neuronal death was analyzed 24 hr later by counting viable neurons excluding trypan (mean±SEM, n=4). *, Significant difference from the relevant control (serum deprivation alone), p<0.05 using ANOVA and Student-Neuman-Keuls test. (C) Western blot analysis of FADD antibody following immunoprecipitation with Fas antibody in the same samples above.\n(§2) Additional experiments were performed to examine if targeting both neuronal cell necrosis and apoptosis would result in synergic neuroprotection in […] transgenic mice. […] Neuronal cell apoptosis was induced by serum deprivation in neuron-rich cortical cell cultures as reported, which was prevented by addition of 5 mM Li^+ as well as zVADfmk, a broad spectrum inhibitor of caspases (FIG. 5B). […] Additional experiments were performed to examine if Li^+ would prevent Fas signaling pathway. […] This implies that 2-Hydroxy-TTBA and Li^+ blocks oxidative neuronal cell necrosis and apoptosis, respectively."}, "[3]": {"tested_on": "cortical cell cultures containing neurons and glia", "assay": "cyclosporine A or calyculin A-induced neuronal cell apoptosis in cortical cell cultures", "assay_type": "cell-based, mouse", "settings": "20 μM cyclosporine A or 10 nM calyculin A, 24 hr; Li^+ at doses of 3-30 mM", "method": "Mouse cortical cell cultures (DIV 10-12) were exposed to 20 μM cyclosporine A or 10 nM calculin A, alone or with inclusion of 0.3-30 mM Li. Neuronal death was analyzed 24-28 hr later by measuring levels of LDH released into the bathing medium, mean±SEM (n=9-12 culture wells per condition).\nMouse cortical cell cultures (DIV 10-12) were exposed to 20 μM cyclosporine A, alone or with 100 μM Vitamin E, 1 μM 2-hydroxy-TTBA, or 1 μM 2-hydroxy-TPEA. Neuronal death was analyzed 24 hr later by measuring levels of LDH released into the bathing medium, mean±SEM (n=9-12 culture wells per condition).\nCortical cell cultures containing neurons and glia at 10-12 days in vitro (DIV 10-12) were exposed to 20 μM cyclosporine A (CsA) or 10 nM caliculin A (cal A). Neurons underwent widespread apoptosis 24 hr later as previously reported (McDonald et al., 1996; Ko et al., 2000). […] This implies that Li^+ and the neuroprotective drugs (vitamin E, trolox, BAS, CBAS, FBAS, TBAS, PBAS, MBAS, NPAA, NPPAA, 2-Hydroxy-TTBA, and 2-Hydroxy-TPEA) selectively prevent neuronal cell apoptosis and free radical-mediated necrosis, respectively."}, "[4]": {"tested_on": "mixed cortical cell cultures containing neurons and glia", "assay": "BSO-induced free radical neurotoxicity in mixed cortical cell cultures (LDH release)", "assay_type": "cell-based, mouse", "method": "Mouse cortical cell cultures (DIV 11-15) were exposed to 10 mM BSO, alone or with indicated doses of 2-Hydroxy-TTBA or 2-Hydroxy-TPEA. Neuronal death was analyzed 24 hr later by measuring levels of LDH released into the bathing medium, mean±SEM (n=9-12 culture wells per condition). *, Significant difference from BSO alone, p<0.05 using ANOVA and Student-Newman-Keuls test.\n(§3) Mouse cortical cell cultures (DIV 11-15) were exposed to 50 μM Fe^2+ or 10 mM BSO, alone or with inclusion of 5 mM Li^+. Neuronal death was analyzed 24 hr later by measuring levels of LDH released into the bathing medium, mean±SEM (n=9-12 culture wells per condition).\nMouse cortical cell cultures (DIV 11-15) were exposed to 30 μM Fe^2+ or 10 mM BSO, alone or in the presence of 1 μM 2-hydroxy TTBA, 10-100 μM vitamin E, or 5 mM Li^+. Neuronal death was analyzed 24 h later by measuring LDH efflux in the bathing media (mean±SEM, n=12). *, Significant difference from the relevant control (Fe^2+ or BSO alone), p<0.05 using ANOVA and Student-Newman-Keuls test.\nFor mixed neuron-glia culture, mouse cerebral cortices were removed from brains of the 11-15 day-old-fetal mice (E11-15), gently triturated and plated on 24 well plates (2×10^5 cells/plate) precoated with 100 μg/ml poly-D-lysine and 4 pg/ml laminin. Cultures were maintained at 37° C. in a humidified 5% CO2 atmosphere. Plating media consist of Eagles minimal essential media (MEM, Earles salts, supplied glutamine-free) supplemented with 5% horse serum, 5% fetal bovine serum, 26.5 mM bicarbonate, 2 mM glutamine, and 21 mM glucose.\nAfter 7-8 days in vitro (DIV 7-8), 10 μM cytosine arabinofuranoside (Ara-C) was included to halt overgrowth of glia. The drug treatment was carried on DIV 11-15 cortical cell culture. Overall neuronal cell injury was assessed by measuring amount of lactate dehydrogenase (LDH) released into the bathing medium 24 hr after neurotoxic insults as previously described (Koh and Choi, J Neurosci Methods 20:83-90, 1987).\nOxidative stress was induced by exposing mixed cortical cell cultures containing neurons and glia (DIV 11-15) to 50 μM FeCl2, a hydroxyl radical-producing transition metal via a Fenton reaction, or 10 mM DL-buthionine-[S,R]-sulfoximine (BSO), a glutathione depleting agent. Widespread neuronal death was observed 24 hours later. […] Administration of vitamin E prevented Fe^2+-induced free radical neurotoxicity at higher doses. This implies that 2-Hydroxy-TTBA or 2-Hydroxy-TPEA is a potent neuroprotectant against oxidative stress."}, "Fas-FADD interaction": {"tested_on": "Fas-FADD interaction", "assay": "Fas-FADD interaction in serum-deprived neuron-rich cultures (immunoprecipitation, Western blot)", "assay_type": "cell-based, mouse", "settings": "deprived of serum for 8 hr", "method": "as §1, §2"}, "[5]": {"tested_on": "mixed cortical cell cultures containing neurons and glia", "assay": "Fe2+-induced free radical neurotoxicity in mixed cortical cell cultures (LDH release)", "assay_type": "cell-based, mouse", "method": "as §3\nMouse cortical cell cultures (DIV 11-15) were exposed to 30 μM Fe^2+ or 10 mM BSO, alone or in the presence of 1 μM 2-hydroxy TTBA, 10-100 μM vitamin E, or 5 mM Li^+.\nFor mixed neuron-glia culture, mouse cerebral cortices were removed from brains of the 11-15 day-old-fetal mice (E11-15), gently triturated and plated on 24 well plates (2×10^5 cells/plate) precoated with 100 μg/ml poly-D-lysine and 4 pg/ml laminin. Cultures were maintained at 37° C. in a humidified 5% CO2 atmosphere.\nAfter 7-8 days in vitro (DIV 7-8), 10 μM cytosine arabinofuranoside (Ara-C) was included to halt overgrowth of glia. The drug treatment was carried on DIV 11-15 cortical cell culture.\nOxidative stress was induced by exposing mixed cortical cell cultures containing neurons and glia (DIV 11-15) to 50 μM FeCl2, a hydroxyl radical-producing transition metal via a Fenton reaction, or 10 mM DL-buthionine-[S,R]-sulfoximine (BSO), a glutathione depleting agent."}, "[6]": {"tested_on": "Fas, FADD, cleaved caspase-8 and caspase-3", "assay": "Fas pathway in lumbar spinal cord of G93A transgenic mice (Western blot)", "settings": "at 12 weeks of age; 2-hydroxy-TTBA 30 mg/kg/d, Li^+ 200 mg/kg/d in the diet", "experimental": "G93A transgenic mice received oral administration of 2-hydroxy-TTBA (30 mg/kg/d) in the diet from 8 weeks of age."}, "G93A transgenic mice": {"tested_on": "G93A transgenic mice", "assay_type": "in vivo, mouse", "method": "Animals were daily fed with 2-hydroxy TTBA (30 mg/kg/d), 0.2% lithium carbonate (200 mg/kg/d, Li), or a combination of both (2-hydroxy TTBA+Li) from 8 weeks of age in diet.\nAnimals were daily fed with 2-hydroxy TTBA (30 mg/kg/d), 0.2% lithium carbonate (Li), or a combination of both (2-hydroxy TTBA+Li) from 8 weeks of age in diet.\nC & D: (C) Bright-field photomicrographs of cresyl violet-stained ventral horn sections from the wild type (a), or G93AA transgenic mice treated with vehicle (b), or with a combination of 2-hydroxy TTBA+Li (c) at 16 weeks of age."}, "[7]": {"settings": "2-hydroxy TTBA 30 mg/kg/d, 0.2% lithium carbonate, or both, in diet from 8 weeks of age, n=13"}},
  "note": "Several values for one entry are separate records, joined by “and”; a condition that tells them apart may be missing. Equal values may be shown once. Entries after “also recorded” stand apart in the source; their conditions may differ. Residues, ends and D or L forms follow the SMILES beside them. *: point of attachment. Cbz = O=C(OCc1ccccc1)*; CH2F = FC*",
  "data": [
    {"molecule": "O=C(O)c1cc(NCCc2cc(C(F)(F)F)cc(C(F)(F)F)c2)ccc1O", "note": "[chemical 27, 5-[2-(3,5-Bis-trifluoromethyl-phenyl)-ethylamino]-2-hydroxy-benzoic acid]", "values": [
      {"measurement": "single-dose toxicity, result in words", "setting": "[1]", "result": "did not show dose-dependent result"},
      {"measurement": "IC50", "setting": "beta-amyloid (Aβ42)", "result": 109, "unit": "µM"}
    ]},
    {"molecule": "COC(=O)C[C@H](NC(=O)[C@H](C)NC(=O)[C@@H](NC(=O)OCc1ccccc1)C(C)C)C(=O)CF", "note": "[zVADfmk] (Cbz-Val-Ala-Asp(OMe)-CH2F)", "values": [
      {"measurement": "serum deprivation-induced neuronal cell apoptosis, effect in words", "setting": "[2]", "result": "prevented"}
    ]},
    {"molecule": "[Li+]", "note": "[Li^+, lithium ion, reference compound]", "values": [
      {"measurement": "serum deprivation-induced neuronal cell apoptosis, effect in words", "setting": "[2]", "result": "prevented; also recorded: prevents apoptosis"},
      {"measurement": "neuronal cell apoptosis, effect in words", "setting": "[3]", "result": "dose-dependently attenuated"},
      {"measurement": "BSO-induced free radical neurotoxicity, effect in words", "setting": "[4]; 10 mM BSO, 24 hr, 2-Hydroxy-TTBA or 2-Hydroxy-TPEA at doses as low as 0.3 μM, Li^+ 10 mM (legend 5 mM)", "result": "did not attenuate; also recorded: does not attenuate"},
      {"measurement": "BSO-induced neuronal death (oxidative stress), effect in words", "setting": "[4]; FIG. 5A: 10 mM BSO, 24 h, 1 μM 2-hydroxy TTBA (submicromolar), 5 mM Li^+", "result": "not attenuated and not"},
      {"measurement": "Fas-FADD interaction, effect in words", "setting": "Fas-FADD interaction", "result": "blocked"},
      {"measurement": "Fe^2+-induced free radical neurotoxicity, effect in words", "setting": "[5]; 50 μM Fe^2+, 24 hr, 2-Hydroxy-TTBA or 2-Hydroxy-TPEA at doses as low as 0.3 μM, vitamin E at higher doses, Li^+ 10 mM (legend 5 mM)", "result": "did not attenuate; also recorded: does not attenuate"},
      {"measurement": "Fe^2+-induced neuronal death (oxidative stress), effect in words", "setting": "[5]; FIG. 5A: 30 μM Fe^2+, 24 h, 1 μM 2-hydroxy TTBA (submicromolar), 5 mM Li^+", "result": "not attenuated and not"},
      {"measurement": "levels of Fas, FADD, cleaved caspase-8 and caspase-3 (Fas pathway) in lumbar spinal cord", "setting": "[6]", "result": "completely blocked"},
      {"measurement": "Mortality (survival)", "setting": "G93A transgenic mice; [7]", "result": "137.2 days and 137.2^a ± 2.20 days"},
      {"measurement": "Onset from PaGE", "setting": "G93A transgenic mice; [7]", "result": "113.3 days and 113.3^a ± 2.28 days"},
      {"measurement": "Onset from Rotarod", "setting": "G93A transgenic mice; [7]", "result": "114.7 days and 114.7^a ± 2.23 days"},
      {"measurement": "weight loss, % of the wild type", "setting": "G93A transgenic mice; G93A mice at 18 weeks of age, oral administration in diet", "result": 53, "unit": "%"},
      {"measurement": "extension reflex, motor strength, and coordination", "setting": "G93A transgenic mice; G93A mice, drug in diet", "result": "improved"},
      {"measurement": "degeneration (loss) of ventral motor neurons in lumbar spinal cord", "setting": "G93A transgenic mice; at 16 weeks of age", "result": 58, "unit": "%"},
      {"measurement": "motor performance versus vehicle-treated control", "setting": "G93A transgenic mice; from 11 weeks to 18 weeks, in the diet", "result": "better motor performance"}
    ]},
    {"molecule": "O=C(O)c1cc(NCCCc2ccc(C(F)(F)F)cc2)ccc1O", "note": "[chemical 42, 2-Hydroxy-5-[3-(4-trifluoromethyl-phenyl)-propylamino]-benzoic acid]", "values": [
      {"measurement": "single-dose toxicity, result in words", "setting": "[1]", "result": "high toxicity or dose-independent toxicity"},
      {"measurement": "IC50", "setting": "beta-amyloid (Aβ42)", "result": 68.3, "unit": "µM"}
    ]},
    {"molecule": "O=C(O)c1cc(NCCc2cccc(C(F)(F)F)c2)ccc1O", "note": "[chemical 04, 2-Hydroxy-5-[2-(3-trifluoromethyl-phenyl)-ethylamino]-benzoic acid]", "values": [
      {"measurement": "single-dose toxicity, result in words", "setting": "[1]", "result": "high toxicity or dose-independent toxicity"}
    ]}
  ]
}
